Laboratory results: the NIST ThermoML archive (doi:10.1021/acs.jced.9b00362)
± gives the expanded uncertainty stated by the source.

Columns and labels:
[1] = Crystal; DSC
[2] = Molar enthalpy of transition or fusion; conditions: Crystal; DSC

With `O=P(O)(O)c1ccccc1` [phenylphosphonic acid] the Triple point temperature [1] was 437.53 ± 0.93 K and the “Molar enthalpy of transition or fusion” value [2] was 5.72 ± 0.502 kcal/mol.
